Laboratory results as given in patent publication US20110318426A1, “ANTIBACTERIAL AGENT AND METHOD OF USING THE SAME” (OSAKA MUNICIPAL TECHNICAL RESEARCH INSTITUTE, priority 2009, published 2011).

What was measured:
Type in all cases: cell-based
[1] = tested on: Escherichia coli; test: Bactericidal effect determination test (viable count, pour plate method); conditions: for count of viable Escherichia coli: detection limit
Procedure: (§1) Then, the suspensions were centrifuged (5800×g, 30 min), whereby supernatants were obtained.
(§2) An Escherichia coli suspension, 20 μL, was added to each of the obtained LB culture media containing the antibacterial agents, whereby liquids for use in the bactericidal effect determination test were obtained. The liquids were sampled, 50 μL each, at the start, one hour later, three hours later, and 24 hours later, and each sample was added to 4.95 mL of a LP diluent. Each resultant was diluted at four steps, ten times each, and the count of viable bacteria in 1 mL of each diluted liquid was determined by the pour plate method. The Escherichia coli suspension used was a suspension obtained by culturing Escherichia coli under agitation at 27° C. for 18 hours in a 5 mL of an ordinary bouillon culture medium (available from Eiken Chemical Co., Ltd.), then, sampling 1 mL of the same and centrifuging the sample at 10000 rpm for 5 minutes, thereafter, suspending sediments in 1 ml of a 0.85% saline solution, and diluting the same to 10 times.
The suspension was agitated at 30° C. for 18 hours. Then, the suspension was centrifuged (5800×g, 30 min), whereby a supernatant, i.e., an LB culture medium containing an antibacterial agent, was prepared.
as §2, with “to” for “to each of”, “medium” for “media”, “agent,” for “agents,”, “liquid was” for “liquids were”, “start, 0.25 hour later,” for “start,”, “eight” for “24”

[2] = tested on: Escherichia coli (IF03972); test: MIC determination test (growth by absorbance at 620 nm)
Procedure: as §1
(§3) In each of the obtained LB culture media containing the antibacterial agents, 1 μL of Escherichia coli (IF03972), Staphyloccocus aureus (IAM112082), Pseudomonas aeruginosa (IAM11514), or Bacillus subtilis (IFO3215), which are microorganisms generally used in the evaluation of antibacterial properties, was inoculated and cultured at 27° C. for 5 days. Microplates (96-well microplates, available Falcon) were used for the culturing of the microorganisms, and the growth of the microorganisms was checked by determination of absorbance at 620 nm with a microplate reader (Multisckan Ascent available from Labsystems). As the microorganisms to be inoculated, those prepared as follows were used: microorganisms of each type were cultured under agitation at 27° C. for 18 hours in a 5 mL of an ordinary bouillon culture medium (available from Eiken Chemical Co., Ltd.), then, 1 mL of the same was sampled and centrifuged at 10000 rpm for 5 minutes, sediments were suspended in 1 ml of a 0.85% saline solution, and the suspension was diluted to 100 times.
as §1
(§4) In each of the obtained LB culture media containing the antibacterial agents, 1 μL of Staphyloccocus aureus or Bacillus subtilis was inoculated and cultured at 27° C. for 5 days. Microplates (96-well microplates, available Falcon) were used for the culturing of the microorganisms, and the growth of the microorganisms was checked by determination of absorbance at 620 nm with a microplate reader (Multisckan Ascent available from Labsystems). As the microorganisms to be inoculated, those prepared as follows were used: microorganisms of each type were cultured under agitation at 27° C. for 18 hours in a 5 mL of an ordinary bouillon culture medium (available from Eiken Chemical Co., Ltd.), then, 1 mL of the same was sampled and centrifuged at 10000 rpm for 5 minutes, sediments were suspended in 1 ml of a 0.85% saline solution, and the suspension was further diluted to 100 times.
as §1

[3] = tested on: Bacillus subtilis (IFO3215); test: as above
Procedure: as §1, §3, §1, §4, §1

[4] = tested on: Pseudomonas aeruginosa (IAM11514); test: as above
Procedure: as §1, §3, §1, §4, §1

[5] = tested on: Staphyloccocus aureus (IAM112082); test: as above
Procedure: as §1, §3, §1, §4, §1

Q: Which results are given for `O=[N+]([O-])[O-].[Ag+]` [silver ions, silver nitrate]?
A: viable Escherichia coli observed ([1]; silver ions 1 mg/L, 1% (W/V) of allophane): only few Escherichia coli were observed; count of viable Escherichia coli ([1]; silver ions 1 mg/L, 4% (W/V) of regenerated collagen powder): < 1000 cfu/ml; count of viable Escherichia coli ([1]; silver ions 1 mg/L, 4% or more of allophane): < 1000 cfu/ml; Count of viable bacteria ([1]; silver ions 1 mg/L, allophane 0% (W/V), time 0 h): 10,800,000 cfu/mL; Count of viable bacteria ([1]; silver ions 1 mg/L, allophane 0% (W/V), time 1 h): 14,900,000 cfu/mL; Count of viable bacteria ([1]; silver ions 1 mg/L, allophane 0% (W/V), time 3 h): 3,930,000 cfu/mL; Count of viable bacteria ([1]; silver ions 1 mg/L, allophane 0% (W/V), time 24 h): 95,000,000 cfu/mL; Count of viable bacteria ([1]; silver ions 1 mg/L, allophane 1% (W/V), time 0 h): 10,800,000 cfu/mL; Count of viable bacteria ([1]; silver ions 1 mg/L, allophane 1% (W/V), time 1 h): 52,000 cfu/mL; Count of viable bacteria ([1]; silver ions 1 mg/L, allophane 1% (W/V), time 3 h): 3,500 cfu/mL; Count of viable bacteria ([1]; silver ions 1 mg/L, allophane 1% (W/V), time 24 h): 2,600 cfu/mL; Count of viable bacteria ([1]; silver ions 1 mg/L, allophane 4% (W/V), time 0 h): 10,800,000 cfu/mL; Count of viable bacteria ([1]; silver ions 1 mg/L, allophane 4% (W/V), time 1 h): 1,100 cfu/mL; Count of viable bacteria ([1]; silver ions 1 mg/L, allophane 4% (W/V), time 3 h): 1,000 or less cfu/mL; Count of viable bacteria ([1]; silver ions 1 mg/L, allophane 4% (W/V), time 24 h): 1,000 or less cfu/mL; Count of viable bacteria ([1]; silver ions 1 mg/L, allophane 8% (W/V), time 0 h): 10,800,000 cfu/mL; Count of viable bacteria ([1]; silver ions 1 mg/L, allophane 8% (W/V), time 1 h): 1,000 or less cfu/mL; Count of viable bacteria ([1]; silver ions 1 mg/L, allophane 8% (W/V), time 3 h): 1,000 or less cfu/mL; Count of viable bacteria ([1]; silver ions 1 mg/L, allophane 8% (W/V), time 24 h): 1,000 or less cfu/mL; Count of viable bacteria ([1]; silver ions 1 mg/L, regenerated collagen powder 0% (W/V), time 1 h): 6.2 × 10^7 cfu/mL; Count of viable bacteria ([1]; silver ions 1 mg/L, regenerated collagen powder 0% (W/V), time 3 h): 6.7 × 10^7 cfu/mL; Count of viable bacteria ([1]; silver ions 1 mg/L, regenerated collagen powder 0% (W/V), time 8 h): 2.4 × 10^7 cfu/mL; Count of viable bacteria ([1]; silver ions 1 mg/L, regenerated collagen powder 0% (W/V), time […]): 8.1 × 10^7 cfu/mL; Count of viable bacteria ([1]; silver ions 1 mg/L, regenerated collagen powder 4% (W/V), time 1 h): 9.9 × 10^6 cfu/mL; Count of viable bacteria ([1]; silver ions 1 mg/L, regenerated collagen powder 4% (W/V), time 3 h): 1.4 × 10^5 cfu/mL; Count of viable bacteria ([1]; silver ions 1 mg/L, regenerated collagen powder 4% (W/V), time 8 h): ≤ 1.0 × 10^3 cfu/mL; Count of viable bacteria ([1]; silver ions 1 mg/L, regenerated collagen powder 4% (W/V), time […]): 4.7 × 10^4 cfu/mL; count of viable Escherichia coli ([1]; silver ions 5 mg/L, 1% (W/V) or more of allophane): < 1000 cfu/ml; Count of viable bacteria ([1]; silver ions 5 mg/L, allophane 0% (W/V), last time point (24 h, time cell misprinted)): 1000 or less cfu/mL; Count of viable bacteria ([1]; silver ions 5 mg/L, allophane 0% (W/V), time 0 h): 10,800,000 cfu/mL; Count of viable bacteria ([1]; silver ions 5 mg/L, allophane 0% (W/V), time 1 h): 6,000,000 cfu/mL; Count of viable bacteria ([1]; silver ions 5 mg/L, allophane 0% (W/V), time 3 h): 29,000 cfu/mL; Count of viable bacteria ([1]; silver ions 5 mg/L, allophane 1% (W/V), last time point (24 h, time cell misprinted)): 1,000 or less cfu/mL; Count of viable bacteria ([1]; silver ions 5 mg/L, allophane 1% (W/V), time 0 h): 10,800,000 cfu/mL; Count of viable bacteria ([1]; silver ions 5 mg/L, allophane 1% (W/V), time 1 h): 1,000 or less cfu/mL; Count of viable bacteria ([1]; silver ions 5 mg/L, allophane 1% (W/V), time 3 h): 1,000 or less cfu/mL; Count of viable bacteria ([1]; silver ions 5 mg/L, allophane 4% (W/V), last time point (24 h, time cell misprinted)): 1,000 or less cfu/mL; Count of viable bacteria ([1]; silver ions 5 mg/L, allophane 4% (W/V), time 0 h): 10,800,000 cfu/mL; Count of viable bacteria ([1]; silver ions 5 mg/L, allophane 4% (W/V), time 1 h): 1,000 or less cfu/mL; Count of viable bacteria ([1]; silver ions 5 mg/L, allophane 4% (W/V), time 3 h): 1,000 or less cfu/mL; Count of viable bacteria ([1]; silver ions 5 mg/L, allophane 8% (W/V), last time point (24 h, time cell misprinted)): 1,000 or less cfu/mL; Count of viable bacteria ([1]; silver ions 5 mg/L, allophane 8% (W/V), time 0 h): 10,800,000 cfu/mL; Count of viable bacteria ([1]; silver ions 5 mg/L, allophane 8% (W/V), time 1 h): 1,000 or less cfu/mL; Count of viable bacteria ([1]; silver ions 5 mg/L, allophane 8% (W/V), time 3 h): 1,000 or less cfu/mL; MIC of silver ions ([2]; 0.5 to 1% (W/V) of allophane contained): 0.5 mg/L; MIC of silver ions ([2]; 2% (W/V) of allophane contained): 0.125 mg/L; MIC of silver ions ([2]; 4% (W/V) of allophane contained): 0.0313 mg/L; MIC of silver ions ([2]; allophane not contained): about 1 mg/L

Q: `O.O.O.O.O.O=S(=O)([O-])[O-].[Cu+2]` [copper ions, copper sulfate pentahydrate] was tested. Which “antibacterial property when phosphorus-adsorbing material was mixed” value (“antibacterial property” below) [3] did it give?
A: improved

Q: What about the “antibacterial property” value [4] of the same compound?
A: did not improve

Q: What about the “antibacterial property” value [5] of the same compound?
A: improved

Q: And the “antibacterial property” value [2]?
A: did not improve

Q: `O.O.O.O.O.O.O.O=S(=O)([O-])[O-].[Zn+2]` [zinc ions, zinc sulfate heptahydrate] was tested. Which “antibacterial property” value [3] did it give?
A: improved

Q: And the “antibacterial property” value [4]?
A: did not improve

Q: What about the “MIC decrease relative to no allophane (fraction)” value [5] of the same compound?
A: about ⅛

Q: What about the “antibacterial property” value [5] of the same compound?
A: improved

Q: And the “antibacterial property” value [2]?
A: did not improve
